The values that follow come from patent US12435060B2, “Acylamino bridged heterocyclic compound, and composition and application thereof” (BEIJING SCITECH-MQ PHARMACEUTICALS LIMITED, priority 2019, dated 2025).

SMILES strings stand for the structures. pIC50: −log10 of the molar value. Some results are limits rather than exact numbers.

The assay deals with HT29 cells. The experiment in a line: Inhibition of cell necrosis (CCK8 method), induced programmed necrosis of HT29 cells. The format is cell-based. Conditions: Homo sapiens, HT-29; rescue from necrosis induced by TNF-α 20 ng/mL, AT-406 1 μM, Z-VAD-FMK 20 μM; 16-20 hours; CCK-8, OD 450 nm. Summed up: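 HT29 cells in McCOY's 5A with 10% FBS were pre-treated for 30 min with compound (9 fourfold steps, 25000 to 0.38 nM final, 0.25% DMSO). Necrosis was then induced with TNF-α 20 ng/mL, AT-406 1 μM and Z-VAD-FMK 20 μM for 16-20 h. Viability was read by CCK-8 OD450, normalized between uninduced and induced wells, and IC50 was curve-fitted.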
On the technique in general: Tetrazolium dyes change colour on reduction, which living cells bring about.
The term pIC50 denotes −log10 of the IC50, conventionally taken in molar units. Turning to `Cc1ccc(OCCCCC#N)cc1-c1ccnc(NC(=O)c2nnc(Cc3ccccc3)[nH]2)c1` [Example 91, 5-benzyl-N-(4-(5-(4-cyanobutoxy)-2-methylphenyl)pyridin-2-yl)-4H-1,2,4-triazole-3-carboxamide], the pIC50 was ≥ 7.00. The same measure for `COc1cccc(C)c1-c1ccnc(NC(=O)c2nnc(Cc3ccccc3)[nH]2)c1` [Example 92, 5-benzyl-N-(4-(2-methoxy-6-methylphenyl)pyridin-2-yl)-4H-1,2,4-triazole-3-carboxamide]: 6.00 to 7.00.

With `CCOc1cccc(C)c1-c1ccnc(NC(=O)c2nnc(Cc3ccccc3)[nH]2)c1` [Example 93, 5-benzyl-N-(4-(2-ethoxy-6-methylphenyl)pyridin-2-yl)-4H-1,2,4-triazole-3-carboxamide], the pIC50 was 5.00 to 6.00.

As to `COCCOc1cccc(C)c1-c1ccnc(NC(=O)c2nnc(Cc3ccccc3)[nH]2)c1` [Example 94, 5-benzyl-N-(4-(2-(2-methoxyethoxy)-6-methylphenyl)pyridin-2-yl)-4H-1,2,4-triazole-3-carboxamide], the negative logarithm of the IC50 (pIC50) is 5.00 to 6.00. For `Cc1c(OCCO)cccc1-c1ccnc(NC(=O)c2nnc(Cc3ccccc3)[nH]2)c1` [Example 95, 5-benzyl-N-(4-(3-(2-hydroxyethoxy)-2-methylphenyl)pyridin-2-yl)-4H-1,2,4-triazole-3-carboxamide] the value was 6.00 to 7.00; for `COCCOc1cccc(-c2ccnc(NC(=O)c3nnc(Cc4ccccc4)[nH]3)c2)c1C` [Example 96, 5-benzyl-N-(4-(3-(2-methoxyethoxy)-2-methylphenyl)pyridin-2-yl)-4H-1,2,4-triazole-3-carboxamide], 6.00 to 7.00; for `Cc1c(OCCCO)cccc1-c1ccnc(NC(=O)c2nnc(Cc3ccccc3)[nH]2)c1` [Example 97, 5-benzyl-N-(4-(3-(3-hydroxylpropoxy)-2-methylphenyl)pyridin-2-yl)-4H-1,2,4-triazole-3-carboxamide], 6.00 to 7.00.

On to `COCCCOc1cccc(-c2ccnc(NC(=O)c3nnc(Cc4ccccc4)[nH]3)c2)c1C` [Example 98, 5-benzyl-N-(4-(3-(3-methoxypropoxy)-2-methylphenyl)pyridin-2-yl)-4H-1,2,4-triazole-3-carboxamide], for which the negative logarithm of the IC50 (pIC50) was 6.00 to 7.00. With `Cc1c(OCCCCO)cccc1-c1ccnc(NC(=O)c2nnc(Cc3ccccc3)[nH]2)c1` [Example 99, 5-benzyl-N-(4-(3-(4-hydroxybutoxy)-2-methylphenyl)pyridin-2-yl)-4H-1,2,4-triazole-3-carboxamide], the pIC50 was 6.00 to 7.00. Take `CCCCCCCCOc1ccc(C)c(-c2ccnc(NC(=O)c3nnc(Cc4ccccc4)[nH]3)c2)c1` [Example 100, 5-benzyl-N-(4-(2-methyl-5-(octyloxy)phenyl)pyridin-2-yl)-4H-1,2,4-triazole-3-carboxamide]: the pIC50 was 6.00 to 7.00. On to `COc1ccc(C)c(-c2ccnc(NC(=O)c3nnc(Cc4ccccc4)[nH]3)c2)c1` [Example 101, 5-benzyl-N-(4-(5-methoxy-2-methylphenyl)pyridin-2-yl)-4H-1,2,4-triazole-3-carboxamide], for which the pIC50 was 6.00 to 7.00.

Regarding `COc1ccc(C)c(-c2ccnc(NC(=O)c3nnc(CC4CCCC4)[nH]3)c2)c1` [Example 102, 5-(cyclopentylmethyl)-N-(4-(5-methoxy-2-methylphenyl)pyridin-2-yl)-4H-1,2,4-triazole-3-carboxamide], the negative logarithm of the IC50 (pIC50) was 6.00 to 7.00. For `COc1ccc(C)c(-c2ccnc(NC(=O)c3nnc(CC4CCCCC4)[nH]3)c2)c1` [Example 103, 5-(cyclohexylmethyl)-N-(4-(5-methoxy-2-methylphenyl)pyridin-2-yl)-4H-1,2,4-triazole-3-carboxamide] the value was 6.00 to 7.00; for `CCc1ccc(OC)c(-c2ccnc(NC(=O)c3nnc(Cc4ccccc4)[nH]3)c2)c1` [Example 104, 5-benzyl-N-(4-(5-ethyl-2-methoxyphenyl)pyridin-2-yl)-4H-1,2,4-triazole-3-carboxamide], 5.00 to 6.00. For `CCOc1ccc(Cl)c(-c2cncc(NC(=O)c3nnc(Cc4ccccc4)[nH]3)c2)c1` [Example 105, 5-benzyl-N-(5-(2-chloro-5-ethoxyphenyl)pyridin-3-yl)-4H-1,2,4-triazole-3-carboxamide] the value was < 5.00; for `CCOc1ccc(Cl)c(-c2ccnc(NC(=O)c3nnc(Cc4ccccc4)[nH]3)c2)c1` [Example 106, 5-benzyl-N-(4-(2-chloro-5-ethoxyphenyl)pyridin-2-yl)-4H-1,2,4-triazole-3-carboxamide], 5.00 to 6.00; for `CCOc1ccc(OC)c(-c2ccnc(NC(=O)c3nnc(Cc4ccccc4)[nH]3)c2)c1` [Example 107, 5-benzyl-N-(4-(5-ethoxy-2-methoxyphenyl)pyridin-2-yl)-4H-1,2,4-triazole-3-carboxamide], 5.00 to 6.00. The same measure for `CCOc1ccc(C)c(-c2ccnc(NC(=O)c3nnc(Cc4ccccc4)[nH]3)c2)c1` [Example 108, 5-benzyl-N-(4-(5-ethoxy-2-methylphenyl)pyridin-2-yl)-4H-1,2,4-triazole-3-carboxamide]: 5.00 to 6.00; for `CCn1nc(C)cc1-c1ccnc(NC(=O)c2nnc(Cc3ccccc3)[nH]2)c1` [Example 109, 5-benzyl-N-(4-(1-ethyl-3-methyl-1H-pyrazol-5-yl)pyridin-2-yl)-4H-1,2,4-triazole-3-carboxamide]: 5.00 to 6.00; for `CC(C)Oc1ccc(Cl)c(-c2cncc(NC(=O)c3nnc(Cc4ccccc4)[nH]3)c2)c1` [Example 110, 5-benzyl-N-(5-(2-chloro-5-isopropoxyphenyl)pyridin-3-yl)-4H-1,2,4-triazole-3-carboxamide]: < 5.00.

On to `CC(C)Oc1ccc(Cl)c(-c2ccnc(NC(=O)c3nnc(Cc4ccccc4)[nH]3)c2)c1` [Example 111, 5-benzyl-N-(4-(2-chloro-5-isopropoxyphenyl)pyridin-2-yl)-4H-1,2,4-triazole-3-carboxamide], for which the pIC50 was ≥ 7.00. For `COc1ccc(OC(C)C)cc1-c1ccnc(NC(=O)c2nnc(Cc3ccccc3)[nH]2)c1` [Example 112, 5-benzyl-N-(4-(5-isopropoxy-2-methoxyphenyl)pyridin-2-yl)-4H-1,2,4-triazole-3-carboxamide] the value was 5.00 to 6.00; for `Cc1ccc(OC(C)C)cc1-c1cncc(NC(=O)c2nnc(Cc3ccccc3)[nH]2)c1` [Example 113, 5-benzyl-N-(5-(5-isopropoxy-2-methylphenyl)pyridin-3-yl)-4H-1,2,4-triazole-3-carboxamide], < 5.00.

In turn, `Cc1ccc(OC(C)C)cc1-c1ccnc(NC(=O)c2nnc(Cc3ccccc3)[nH]2)c1` [Example 114, 5-benzyl-N-(4-(5-isopropoxy-2-methylphenyl)pyridin-2-yl)-4H-1,2,4-triazole-3-carboxamide] gave a pIC50 of 6.00 to 7.00.

The compound `Cc1ccc(OCCC(C)(C)C)cc1-c1ccnc(NC(=O)c2nnc(Cc3ccccc3)[nH]2)c1` [Example 115, 5-benzyl-N-(4-(5-(3,3-dimethylbutoxy)-2-methylphenyl)pyridin-2-yl)-4H-1,2,4-triazole-3-carboxamide] showed a negative logarithm of the IC50 (pIC50) of 6.00 to 7.00. With `Cc1ccc(OCC(N)=O)cc1-c1ccnc(NC(=O)c2nnc(Cc3ccccc3)[nH]2)c1` [Example 116, N-(4-(5-(2-amino-2-oxoethoxy)-2-methylphenyl)pyridin-2-yl)-5-benzyl-4H-1,2,4-triazole-3-carboxamide], the pIC50 was 6.00 to 7.00. The same measure for `Cc1ccc(OCC(C)(C)O)cc1-c1ccnc(NC(=O)c2nnc(Cc3ccccc3)[nH]2)c1` [Example 117, 5-benzyl-N-(4-(5-(2-hydroxyl-2-methylpropoxy)-2-methylphenyl)pyridin-2-yl)-4H-1,2,4-triazole-3-carboxamide]: ≥ 7.00; for `Cc1ccc(OCC(C)(C)O)cc1-c1ccnc(NC(=O)c2nnc(CC3CCCC3)[nH]2)c1` [Example 118, 5-(cyclopentylmethyl)-N-(4-(5-(2-hydroxyl-2-methylpropoxy)-2-methylphenyl)pyridin-2-yl)-4H-1,2,4-triazole-3-carboxamide]: ≥ 7.00.

With `Cc1ccc(OCC(C)(C)O)cc1-c1ccnc(NC(=O)c2nnc(CC3CCCCC3)[nH]2)c1` [Example 119, 5-(cyclohexylmethyl)-N-(4-(5-(2-hydroxyl-2-methylpropoxy)-2-methylphenyl)pyridin-2-yl)-4H-1,2,4-triazole-3-carboxamide], the negative-log IC50 (pIC50) is ≥ 7.00.

As to `Cc1ccc(OCC#N)cc1-c1ccnc(NC(=O)c2nnc(Cc3ccccc3)[nH]2)c1` [Example 120, 5-benzyl-N-(4-(5-(cyanomethoxy)-2-methylphenyl)pyridin-2-yl)-4H-1,2,4-triazole-3-carboxamide], the negative logarithm of the IC50 (pIC50) is 6.00 to 7.00. As to `Cc1ccc(OCC2CCCO2)cc1-c1ccnc(NC(=O)c2nnc(Cc3ccccc3)[nH]2)c1` (stereo not shown) [Example 121, 5-benzyl-N-(4-(2-methyl-5-((tetrahydrofuran-2-yl)methoxy)phenyl)pyridin-2-yl)-4H-1,2,4-triazole-3-carboxamide], the negative-log IC50 (pIC50) was ≥ 7.00.

Turning to `Cc1ccc(OCC2CCOC2)cc1-c1ccnc(NC(=O)c2nnc(Cc3ccccc3)[nH]2)c1` (stereo not shown) [Example 122, 5-benzyl-N-(4-(2-methyl-5-((tetrahydrofuran-3-yl)methoxy)phenyl)pyridin-2-yl)-4H-1,2,4-triazole-3-carboxamide], the pIC50 is ≥ 7.00.

For the compound `Cc1ccc(OCC2CCCCO2)cc1-c1ccnc(NC(=O)c2nnc(Cc3ccccc3)[nH]2)c1` (stereo not shown) [Example 123, 5-benzyl-N-(4-(2-methyl-5-((tetrahydro-2H-pyran-2-yl)methoxy)phenyl)pyridin-2-yl)-4H-1,2,4-triazole-3-carboxamide], the negative logarithm of the IC50 (pIC50) is ≥ 7.00.

`O=C(Nc1cc(-c2ccccc2OCCO)ccn1)c1nnc(Cc2ccccc2)[nH]1` [Example 124, 5-benzyl-N-(4-(2-(2-hydroxyethoxy)phenyl)pyridin-2-yl)-4H-1,2,4-triazole-3-carboxamide] gave a pIC50 of 5.00 to 6.00.
